Results from ChEMBL document CHEMBL1122862, “Synthesis and antibacterial activity of 2,2'-dithiobis(benzamide) derivatives against Mycobacterium species” (1985).
In brackets after ≈: the same amount, converted by molar mass.

Columns and labels:
Format in all cases: functional
[1] = tested on: Mycobacterium tuberculosis; assay: Tested for antibacterial activity against Mycobacterium tuberculosis H37Rv streptomycin resistant strain
[2] = tested on: Mycobacterium tuberculosis; assay: Tested for antibacterial activity against Mycobacterium tuberculosis H37Rv kanamycin resistant strain
[3] = tested on: Mycobacterium tuberculosis; assay: Tested for antibacterial activity against Mycobacterium tuberculosis H37Rv isonicotinic acid hydrazide-resistant strain

| SMILES | MIC [1] [µg/mL] | MIC [2] [µg/mL] | MIC [3] [µg/mL] |
| --- | --- | --- | --- |
| CN[C@@H]1[C@H](O[C@H]2[C@H](O[C@H]3[C@H](O)[C@@H](O)[C@H](N=C(N)N)[C@@H](O)[C@@H]3N=C(N)N)O[C@@H](C)[C@]2(O)C=O)O[C@@H](CO)[C@H](O[C@@H]2O[C@H](CO)[C@@H](O)[C@H](O)[C@@H]2O)[C@H]1O | > 100 | 3.13 (≈ 4.21 µM) | 0.78 (≈ 1.05 µM) |
| CCCCCC(=O)OCCCNC(=O)c1ccccc1SSc1ccccc1C(=O)NCCCOC(=O)CCCCC | 3.13 (≈ 5.07 µM) | 3.13 (≈ 5.07 µM) | 3.13 (≈ 5.07 µM) |
| CCOC(=O)CNC(=O)c1ccccc1SSc1ccccc1C(=O)NCC(=O)OCC | 12.5 (≈ 26.2 µM) | 25 (≈ 52.5 µM) | 12.5 (≈ 26.2 µM) |
| CCCCc1ccc(NC(=O)c2ccccc2SSc2ccccc2C(=O)Nc2ccc(CCCC)cc2)cc1 | 1.56 (≈ 2.74 µM) | 1.56 (≈ 2.74 µM) | 0.78 (≈ 1.37 µM) |
| O=C(NCC(O)c1ccc(O)c(O)c1)c1ccccc1SSc1ccccc1C(=O)NCC(O)c1ccc(O)c(O)c1 (centres undefined) | > 100 | 100 (≈ 164 µM) | 100 (≈ 164 µM) |
| O=C(Nc1cccc(C(F)(F)F)c1)c1ccccc1SSc1ccccc1C(=O)Nc1cccc(C(F)(F)F)c1 | 3.13 (≈ 5.28 µM) | 6.25 (≈ 10.5 µM) | 3.13 (≈ 5.28 µM) |
| O=C1c2ccccc2S(=O)(=O)N1CO | 100 (≈ 469 µM) | > 100 | > 100 |
| O=C(NCc1cccc2ccccc12)c1ccccc1SSc1ccccc1C(=O)NCc1cccc2ccccc12 | > 100 | > 100 | > 100 |
| O=C(Nc1cc2ccccc2cc1O)c1ccccc1SSc1ccccc1C(=O)Nc1cc2ccccc2cc1O | 12.5 (≈ 21.2 µM) | 6.25 (≈ 10.6 µM) | 12.5 (≈ 21.2 µM) |
| CCn1c2ccccc2c2cc(NC(=O)c3ccccc3SSc3ccccc3C(=O)Nc3ccc4c(c3)c3ccccc3n4CC)ccc21 | 1.56 (≈ 2.26 µM) | 3.13 (≈ 4.53 µM) | 1.56 (≈ 2.26 µM) |
| O=c1c2ccccc2sn1CO | 12.5 (≈ 69 µM) | 12.5 (≈ 69 µM) | 6.25 (≈ 34.5 µM) |
| CCCCCCCC(=O)OCCCNC(=O)c1ccccc1SSc1ccccc1C(=O)NCCCOC(=O)CCCCCCC | 0.78 (≈ 1.16 µM) | 0.39 (≈ 0.58 µM) | 0.39 (≈ 0.58 µM) |
| O=C(Nc1ccc(S(=O)(=O)Nc2nc3ccccc3s2)cc1)c1ccccc1SSc1ccccc1C(=O)Nc1ccc(S(=O)(=O)Nc2nc3ccccc3s2)cc1 | 100 (≈ 113 µM) | 50 (≈ 56.7 µM) | 100 (≈ 113 µM) |
| CN1CCCN(C(=O)c2ccccc2SSc2ccccc2C(=O)N2CCCN(C)CC2)CC1 | > 100 | > 100 | > 100 |
| O=C(Nc1ccc(Br)c2ccccc12)c1ccccc1SSc1ccccc1C(=O)Nc1ccc(Br)c2ccccc12 | 12.5 (≈ 17.5 µM) | 12.5 (≈ 17.5 µM) | 12.5 (≈ 17.5 µM) |
| O=C(c1ccccc1SSc1ccccc1C(=O)N1C(=O)c2ccccc2C1=O)N1C(=O)c2ccccc2C1=O | > 100 | > 100 | > 100 |
| CCOc1ccc2nc(NC(=O)c3ccccc3SSc3ccccc3C(=O)Nc3nc4ccc(OCC)cc4s3)sc2c1 | > 100 | > 100 | > 100 |
| CCCCCCCCCCCC(=O)OCCCNC(=O)c1ccccc1SSc1ccccc1C(=O)NCCCOC(=O)CCCCCCCCCCC | 0.78 (≈ 0.993 µM) | 0.78 (≈ 0.993 µM) | 0.78 (≈ 0.993 µM) |
| CCC(CO)NC(=O)c1ccccc1SSc1ccccc1C(=O)NC(CC)CO (centres undefined) | 12.5 (≈ 27.9 µM) | 12.5 (≈ 27.9 µM) | 12.5 (≈ 27.9 µM) |
| O=C(Nc1c([N+](=O)[O-])ccc2ccccc12)c1ccccc1SSc1ccccc1C(=O)Nc1c([N+](=O)[O-])ccc2ccccc12 | 50 (≈ 77.3 µM) | 50 (≈ 77.3 µM) | 50 (≈ 77.3 µM) |
| O=C(c1ccccc1SSc1ccccc1C(=O)n1nnc2ccccc21)n1nnc2ccccc21 | > 100 | > 100 | > 100 |
| O=c1c2ccccc2sn1CCO | 12.5 (≈ 64 µM) | 12.5 (≈ 64 µM) | 12.5 (≈ 64 µM) |
| CCCCCCCCCCCC(=O)OCCNC(=O)c1ccccc1SSc1ccccc1C(=O)NCCOC(=O)CCCCCCCCCCC | 3.13 (≈ 4.13 µM) | 3.13 (≈ 4.13 µM) | 3.13 (≈ 4.13 µM) |
| O=C(O)Cc1ccc(NC(=O)c2ccccc2SSc2ccccc2C(=O)Nc2ccc(CC(=O)O)cc2)cc1 | 100 (≈ 175 µM) | 100 (≈ 175 µM) | 100 (≈ 175 µM) |

| SMILES | MIC [1] [µg/mL] | MIC [2] [µg/mL] | MIC [3] [µg/mL] |
| --- | --- | --- | --- |
| O=C(NCc1ccco1)c1ccccc1SSc1ccccc1C(=O)NCc1ccco1 | 12.5 (≈ 26.9 µM) | 12.5 (≈ 26.9 µM) | 12.5 (≈ 26.9 µM) |
| CCCCC(CC)CNC(=O)c1ccccc1SSc1ccccc1C(=O)NCC(CC)CCCC (centres undefined) | 1.56 (≈ 2.95 µM) | 1.56 (≈ 2.95 µM) | 1.56 (≈ 2.95 µM) |
| CC(=O)OCCCNC(=O)c1ccccc1SSc1ccccc1C(=O)NCCCOC(C)=O | 12.5 (≈ 24.8 µM) | 12.5 (≈ 24.8 µM) | 6.25 (≈ 12.4 µM) |
| O=C(Nc1ccc2ccccc2c1)c1ccccc1SSc1ccccc1C(=O)Nc1ccc2ccccc2c1 | 1.56 (≈ 2.8 µM) | 1.56 (≈ 2.8 µM) | 1.56 (≈ 2.8 µM) |
| CCCCCCCCCCCCCCCCCCCC(=O)OCCCNC(=O)c1ccccc1SSc1ccccc1C(=O)NCCCOC(=O)CCCCCCCCCCCCCCCCCCC | > 100 | > 100 | > 100 |
| CC(O)Cn1sc2ccccc2c1=O (centres undefined) | 12.5 (≈ 59.7 µM) | 12.5 (≈ 59.7 µM) | 12.5 (≈ 59.7 µM) |
| CCCCCCCCCC(=O)OCCCNC(=O)c1ccccc1SSc1ccccc1C(=O)NCCCOC(=O)CCCCCCCCC | 0.78 (≈ 1.07 µM) | 0.39 (≈ 0.535 µM) | 0.39 (≈ 0.535 µM) |
| CCNC(=O)OCCNC(=O)c1ccccc1SSc1ccccc1C(=O)NCCOC(=O)NCC | 25 (≈ 46.8 µM) | 25 (≈ 46.8 µM) | 25 (≈ 46.8 µM) |
| CCOC(=O)c1ccc(NC(=O)c2ccccc2SSc2ccccc2C(=O)Nc2ccc(C(=O)OCC)cc2)cc1 | 3.13 (≈ 5.21 µM) | 6.25 (≈ 10.4 µM) | 3.13 (≈ 5.21 µM) |
| CC(C)(CO)NC(=O)c1ccccc1SSc1ccccc1C(=O)NC(C)(C)CO | 12.5 (≈ 27.9 µM) | 12.5 (≈ 27.9 µM) | 6.25 (≈ 13.9 µM) |
| CCCCCCCCCCNC(=O)c1ccccc1SSc1ccccc1C(=O)NCCCCCCCCCC | 3.13 (≈ 5.35 µM) | 6.25 (≈ 10.7 µM) | 3.13 (≈ 5.35 µM) |
| CCCCCCC(=O)OCCCNC(=O)c1ccccc1SSc1ccccc1C(=O)NCCCOC(=O)CCCCCC | 1.56 (≈ 2.42 µM) | 1.56 (≈ 2.42 µM) | 1.56 (≈ 2.42 µM) |
| NC(=O)c1ccccc1SSc1ccccc1C(N)=O | 6.25 (≈ 20.5 µM) | 6.25 (≈ 20.5 µM) | 6.25 (≈ 20.5 µM) |
| O=C(Nc1ccc(Cl)c2ccccc12)c1ccccc1SSc1ccccc1C(=O)Nc1ccc(Cl)c2ccccc12 | 12.5 (≈ 20 µM) | 12.5 (≈ 20 µM) | 12.5 (≈ 20 µM) |
| CCc1cc(CC)cc(NC(=O)c2ccccc2SSc2ccccc2C(=O)Nc2cc(CC)cc(CC)c2)c1 | > 100 | > 100 | > 100 |
| CCCC(=O)OCCCNC(=O)c1ccccc1SSc1ccccc1C(=O)NCCCOC(=O)CCC | 6.25 (≈ 11.1 µM) | 6.25 (≈ 11.1 µM) | 3.13 (≈ 5.58 µM) |
| O=C(Nc1cccc2ccc(O)cc12)c1ccccc1SSc1ccccc1C(=O)Nc1cccc2ccc(O)cc12 | 50 (≈ 84.9 µM) | 50 (≈ 84.9 µM) | 12.5 (≈ 21.2 µM) |
| O=C(Nc1cccc2cccnc12)c1ccccc1SSc1ccccc1C(=O)Nc1cccc2cccnc12 | 50 (≈ 89.5 µM) | 50 (≈ 89.5 µM) | 12.5 (≈ 22.4 µM) |
| CCC(O)CNC(=O)c1ccccc1SSc1ccccc1C(=O)NCC(O)CC (centres undefined) | 12.5 (≈ 27.9 µM) | 12.5 (≈ 27.9 µM) | 12.5 (≈ 27.9 µM) |
| CC(O)CNC(=O)c1ccc(SSc2ccc(C(=O)NCC(C)O)cc2)cc1 (centres undefined) | > 100 | > 100 | > 100 |
| CC[C@@H](CO)NCCN[C@@H](CC)CO [ETHAMBUTOL] | 0.78 (≈ 3.82 µM) | 1.56 (≈ 7.64 µM) | 0.78 (≈ 3.82 µM) |
| NNC(=O)c1ccncc1 [ISONIAZID] | 0.05 (≈ 0.365 µM) | 0.05 (≈ 0.365 µM) | 100 (≈ 729 µM) |
| NC[C@H]1O[C@H](O[C@H]2[C@H](O)[C@@H](O[C@H]3O[C@H](CO)[C@@H](O)[C@H](N)[C@H]3O)[C@H](N)C[C@@H]2N)[C@H](O)[C@@H](O)[C@@H]1O [KANAMYCIN] | 6.25 (≈ 12.9 µM) | > 100 | 6.25 (≈ 12.9 µM) |
| CO[C@H]1/C=C/O[C@@]2(C)Oc3c(C)c(O)c4c(O)c(c(/C=N/N5CCN(C)CC5)c(O)c4c3C2=O)NC(=O)/C(C)=C\C=C\[C@H](C)[C@H](O)[C@@H](C)[C@@H](O)[C@@H](C)[C@H](OC(C)=O)[C@@H]1C [RIFAMPIN] | 0.025 (≈ 0.0304 µM) | 0.05 (≈ 0.0608 µM) | 0.025 (≈ 0.0304 µM) |
